# Measured values from ChEMBL document CHEMBL5257034, “Hybrid molecules: The privileged scaffolds for various pharmaceuticals” (Eur J Med Chem, 2016).
# Legend:
# [1] = system: Mycobacterium tuberculosis; assay: Antibacterial activity against Mycobacterium tuberculosis H37Rv; type: functional
# [2] = system: Plasmodium falciparum; assay: Antiplasmodial activity against Plasmodium falciparum W2 infected in red blood cells (unknown origin) incubated for 72 hrs by LDH assay; type: functional, organism-based, Red blood cell; details: W2, Erythrocyte
# [3] = system: Pichia norvegensis; assay: Antifungal activity against Candida mycoderma incubated for 24 hrs; type: functional
# [4] = system: Aspergillus niger; assay: Antifungal activity against Aspergillus niger assessed as zone of inhibition; type: functional
# [5] = system: Candida albicans; assay: Antifungal activity against Candida albicans assessed as zone of inhibition; type: functional
# [6] = system: Mycobacterium tuberculosis; assay: Antibacterial activity against Mycobacterium tuberculosis H37Rv by alamar blue method; type: functional
# [7] = system: Candida albicans; assay: Antifungal activity against Candida albicans; type: functional, organism-based
# [8] = system: Candida albicans; assay: Antifungal activity against Candida albicans ATCC 76615 incubated for 24 hrs by microbroth dilution method; type: functional
# [9] = system: Mus musculus; assay: Antiinflammatory activity against ear oedema mouse model assessed as inhibition of xylene induced edema; type: functional
# [10] = system: Plasmodium falciparum; assay: Antimalarial activity against chloroquine-sensitive Plasmodium falciparum 3D7; type: functional
# [11] = system: Mycobacterium tuberculosis; assay: Potency index, ratio of pyrazinamide MIC to test compound MIC for antibacterial activity against Mycobacterium tuberculosis H37Rv; type: functional
# [12] = system: MCF7; assay: Cytotoxicity against human MCF7 cells measured 24 hrs by MTT assay; type: functional, cell-based; details: MCF7, 24 h
# [13] = system: Mycobacterium tuberculosis; assay: Antibacterial activity against Mycobacterium tuberculosis H37Rv assessed as reduction in relative light unit at 2 microg/ml incubated for 72 hrs by luciferase reporter phage assay relative to control; type: functional; set-up: scale not given: the % may be the effect or the level left; details: dose 2 µg/ml
# [14] = system: Mycobacterium tuberculosis; assay: Antibacterial activity against Mycobacterium tuberculosis H37Rv assessed as reduction in relative light unit at 5.2 microg/ml incubated for 72 hrs by luciferase reporter phage assay relative to control; type: functional; set-up: scale not given: the % may be the effect or the level left; details: dose 5.2 µg/ml
# [15] = system: Mycobacterium tuberculosis; assay: Antibacterial activity against Mycobacterium tuberculosis; type: functional
# [16] = system: Aspergillus niger; assay: Antifungal activity against Aspergillus niger ATCC 9029; type: functional
# [17] = system: Pichia kudriavzevii; assay: Antifungal activity against Candida krusei ATCC 6258; type: functional
# [18] = system: Candida albicans; assay: Antifungal activity against Candida albicans ATCC 2091; type: functional
# [19] = system: Mycobacterium tuberculosis; assay: Antibacterial activity against Mycobacterium tuberculosis H37Rv (ATTCC 27294) by alamar blue based broth dilution assay; type: functional
# [20] = system: Meyerozyma guilliermondii; assay: Antifungal activity against Meyerozyma guilliermondii assessed as zone of inhibition; type: functional
structure (smiles),measurement,setting,value
O=C1Nc2cc3c(-c4ccccc4)c(-c4ccccc4)oc(=O)c3cc2C(c2ccccc2Cl)N1 (stereo not drawn),MIC,[1],62.5 µg/mL
Cc1cccc(C)c1Nc1nc(OCc2cn(CCCNc3cccc4cc(Cl)ccc34)nn2)nc(N(C)C)n1,IC50,[2],730 nM
Cc1cccc(C)c1Nc1nc(OCc2cn(CCNc3cccc4cc(Cl)ccc34)nn2)nc(N(C)C)n1,IC50,[2],1690 nM
O=C1c2cccc3c(Br)ccc(c23)C(=O)N1CCCn1c[n+](Cc2ccc(F)cc2F)cn1.[Br-],MIC,[3],4 µg/mL
COC1=CC(=O)C[C@@H](C)[C@]12Oc1c(Cl)c(OC)cc(OC)c1C2=O [GRISEOFULVIN],inhibition zone (IZ),[4],36 mm
same,inhibition zone (IZ),[5],39 mm
c1c[nH]c(Cc2nc3ccccc3c3cc[nH]c23)c1,MIC,[6],3.3 µg/mL
NC(=O)OC[C@H](O)[C@@H](O)[C@H](N)C(=O)N[C@H](C(=O)O)[C@H]1O[C@@H](n2cc(C(=O)O)c(=O)[nH]c2=O)[C@H](O)[C@@H]1O,MIC,[7],320 µg/mL
COc1ccc(-c2nc(-c3ccccc3)c(-c3ccccc3)n2C(NN(c2ccccc2)c2ccccc2)c2ccccc2)c(OC)c1OC (stereo not drawn),inhibition zone (IZ),[4],27 mm
same,inhibition zone (IZ),[5],28 mm
CCCCCCCCCCCCCCCC[n+]1cnn(Cc2ccc(Cl)cc2Cl)c1.[Br-],MIC,[8],30 µg/mL
CS(=O)(=O)c1ccc(-c2nc(S(C)(=O)=O)nn2-c2ccc(Cl)cc2)cc1,inhibition (INH),[9],77.2%
C[C@@H]([C@H](N)C(=O)N[C@H](C(=O)O)[C@H]1O[C@@H](n2ccc(=O)[nH]c2=O)[C@H](O)[C@@H]1O)[C@H](O)c1ccc(O)cn1 [NIKKOMYCIN],IC50,[7],0.393 µg/mL
O=C1Nc2cc3c(-c4ccccc4)c(-c4ccccc4)oc(=O)c3cc2C(c2ccc([N+](=O)[O-])cc2)N1 (stereo not drawn),MIC,[1],40 µg/mL
CC1=C(c2nnc(/N=C3\C(=O)Nc4ccc(Cl)cc43)o2)C(c2ccccc2)NC(=S)N1 (stereo not drawn),MIC,[10],0.035 µg/mL
COc1ccc(-c2nc(-c3ccccc3)c(-c3ccccc3)n2C(NN2CCCCC2)c2ccccc2)c(OC)c1OC (stereo not drawn),inhibition zone (IZ),[4],26 mm
same,inhibition zone (IZ),[5],29 mm
CS(=O)(=O)c1ccc(-c2nc(S(C)(=O)=O)nn2-c2ccc(Br)cc2)cc1,inhibition (INH),[9],70.8%
COc1cc(Nc2nc(OCc3cn(CCNc4cccc5cc(Cl)ccc45)nn3)nc(N(C)C)n2)cc(OC)c1,IC50,[2],1150 nM
CCN(CC)CCCC(C)Nc1ccnc2cc(Cl)ccc12 (stereo not drawn) [CHLOROQUINE],MIC,[10],0.125 µg/mL
CC[C@@H](CO)NCCN[C@@H](CC)CO [ETHAMBUTOL],MIC,[1],7.6 µM
O=C1Nc2ccccc2C12C(c1cccc([N+](=O)[O-])c1)C([N+](=O)[O-])C1CSCN12 (stereo not drawn),MIC,[1],7.6 µM
same,Ratio,[11],6.7
NC(=O)c1cnccn1 [PYRAZINAMIDE],MIC,[1],50.1 µM
COc1cc(/C=C/c2ccc(O)cc2)cc(OC)c1 [PTEROSTILBENE],IC50,[12],65 µM
O=C(/C=C/c1ccc(Cl)cc1Cl)c1ccc(OCC(O)(Cn2cncn2)c2ccc(F)cc2F)cc1 (stereo not drawn),MIC50,[7],0.12 µg/mL
CO[C@H]1/C=C/O[C@@]2(C)Oc3c(C)c(O)c4c(O)c(c(/C=N/N5CCN(C)CC5)c(O)c4c3C2=O)NC(=O)/C(C)=C\C=C\[C@H](C)[C@H](O)[C@@H](C)[C@@H](O)[C@@H](C)[C@H](OC(C)=O)[C@@H]1C [RIFAMPIN],Activity,[13],87%
O=C(NN1C(=O)CSC1c1ccc([N+](=O)[O-])cc1)c1ccc(NCN2c3ccccc3Sc3ccccc32)cc1 (stereo not drawn),MIC,[1],3.12 µg/mL
COc1cc(/C=C/c2ccc(O)c(/C=N/NC(N)=S)c2)cc(OC)c1,IC50,[12],25 µM
CC(=O)OC[C@H]1O[C@@H](OCc2cn(Cc3ccc4ccccc4n3)nn2)[C@H](OC(C)=O)[C@@H](OC(C)=O)[C@@H]1OC(C)=O,Activity,[14],76.41%
COc1ccc(-c2nc(-c3ccccc3)c(-c3ccccc3)n2C(NN(c2ccccc2)c2cccc3ccccc23)c2ccccc2)c(OC)c1OC (stereo not drawn),inhibition zone (IZ),[4],24 mm
same,inhibition zone (IZ),[5],20 mm
COc1ccc(-c2nc(-c3ccccc3)c(-c3ccccc3)n2C(NN2CCNCC2)c2ccccc2)c(OC)c1OC (stereo not drawn),inhibition zone (IZ),[4],27 mm
same,inhibition zone (IZ),[5],28 mm
CCCCCCCCCCC(=O)N[C@H](C(=O)O)[C@H]1O[C@@H](n2ccc(=O)[nH]c2=O)[C@H](O)[C@@H]1O,MIC,[7],40 µg/mL
NC(Cc1cc2ccccc2c2ccccc12)C(=O)N[C@H](C(=O)O)[C@H]1O[C@@H](n2ccc(=O)[nH]c2=O)[C@H](O)[C@@H]1O (stereo partly drawn),IC50,[7],0.31 µg/mL
CSc1nc(-c2ccc(S(N)(=O)=O)cc2)n(-c2ccc(Cl)cc2)n1,inhibition (INH),[9],80%
O=C1NN=C(/N=C/c2cccc(Cl)c2)/C1=N\Nc1nc2c([N+](=O)[O-])cccc2s1,MIC,[15],1.66 µg/mL
CCn1cc(C(=O)NN2C(=O)CSC2c2ccccc2OC)c(=O)c2cc(F)c(N3CCNCC3)cc21 (stereo not drawn),MIC,[16],12.5 µg/mL
same,MIC,[17],1.59 µg/mL
same,MIC,[18],3.12 µg/mL
O=C1Nc2cc3c(-c4ccccc4)c(-c4ccccc4)oc(=O)c3cc2C(c2ccc(Cl)cc2)N1 (stereo not drawn),MIC,[1],50 µg/mL
O=C1Oc2cc(OCCN(N3CCOCC3)N3CCOCC3)ccc2C2c3ccccc3OC12 (stereo not drawn),MIC,[1],3.12 µg/mL
O=C(O)c1cn(C2CC2)c2cc(N3CCNCC3)c(F)cc2c1=O [CIPROFLOXACIN],MIC,[6],4.7 µg/mL
Cn1ccnc1-c1nn2cc(-c3ccc(-c4ccc([N+](=O)[O-])cc4)cc3)nc2s1,MIC,[19],3.14 µg/mL
CC1(C)CC[C@]2(C(=O)O)CC[C@]3(C)C(=CC[C@@H]4[C@@]5(C)CC[C@H](OC(=O)/C=C/c6ccccc6)C(C)(C)[C@@H]5CC[C@]43C)[C@@H]2C1,inhibition zone (IZ),[20],31 mm
OC(Cn1cncn1)(Cn1cncn1)c1ccc(F)cc1F [FLUCONAZOLE],MIC,[3],4 µg/mL
same,MIC,[16],12.5 µg/mL
same,MIC,[17],3.12 µg/mL
same,MIC,[18],6.25 µg/mL
same,MIC,[8],52.2 µg/mL
same,inhibition zone (IZ),[20],21 mm
CSc1nc(-c2ccc(S(N)(=O)=O)cc2)n(-c2ccc(F)cc2)n1,inhibition (INH),[9],75%
Clc1ccc(Cn2c[n+](CCCCCC[n+]3cnn(Cc4ccc(Cl)cc4Cl)c3)cn2)c(Cl)c1.[Br-].[Br-],MIC,[8],22.9 µg/mL
COc1cc(Nc2nc(OCc3cn(CCCNc4cccc5cc(Cl)ccc45)nn3)nc(N(C)C)n2)cc(OC)c1,IC50,[2],1200 nM
Cc1ccc(-c2cc(C(F)(F)F)nn2-c2ccc(S(N)(=O)=O)cc2)cc1 [CELECOXIB],inhibition (INH),[9],64.9%
COc1cc(Nc2nc(OCc3cn(CCCNc4cccc5cc(Cl)ccc45)nn3)nc(N3CCOCC3)n2)cc(OC)c1,IC50,[2],1730 nM
NNC(=O)c1ccncc1 [ISONIAZID],MIC,[1],0.2 µg/mL
